This series is described as follows: UV absorbance of sunscreen compositions (FIG. 9). The class given is physicochemical. From the text: FIG. 9 depicts the UV absorbance of two specific suncreen compositions.
Thus, to adequately protect human skin from the UV-induced enzymes that degrade the collagen matrix, and which inhibit collagen biosynthesis, a sunscreen formulation must block both radiation of less then 325 nm and that between about 360 nm and 400 nm. In our prior application Ser. No. 09/089,914, we proposed a sunscreen comprising a UVB blocker such as PARSOL MCX and a UVA blocker such as PARSOL 1789. Other UVB blockers known in the art, and in light of the information provided herein, are also suitable. However, various UVA blockers, including PARSOL 1789 and various others such as TINOSORB brand blockers (available from Ciba, Basel, Switzerland) are relatively broadband blockers and while blocking some of the UVA radiation in the >360-400 nm range, are not optimized for that region. […] As noted above, these wavelengths are greater than the 360 nm the industry desires to block with its compounds, because it is generally believed that a broad band absorber will provide the desired blocking effects. To the contrary, we have shown that it is sufficient to block narrow bands of UV radiation, namely 295-325 nm in the UVB, more preferably 305-325 nm, and those wavelengths above 360 nm in the UVA, and that blocking these wavelengths achieves the desired prevention of UV-induced […] of MMPs in human skin.

Regarding `COc1ccc(C(=O)CC(=O)c2ccc(C(C)(C)C)cc2)cc1` [PARSOL 1789], the UV absorbance entry by setting is: (UVA1 area of 340-360 nm) “appears adequate”; (area of 390-400 nm) “almost no absorbance”; (at 370 nm) “falls off”; (to 380 nm) “falls off dramatically”.
